# Test results as given in patent publication US20010039027A1, “Cyclitol containing carbohydrates from human tissue which regulate lipogenic activity” (priority 1996, published 2001).
# Test system: rat adipocytes
# Experiment: Activation of lipogenesis in rat adipocytes
# Format: cell-based
# Conditions: insulin 1 nM; twenty independent lipogenesis assays
# Method: This was carried out on adipocytes isolated from the epididymal fat pads of young rats. Briefly adipocytes from two rat epididymial fat pads were suspended in 8 ml of Krebs Ringer bicarbonate and 250 μL of the cell suspension was incubated at 37° C. for two hours in Krebs Ringer bicarbonate, containing 1% albumin and 5 mM [U-^14C]-glucose (1 μCi/sample) with or without insulin (1 nM) or 10 μL of IPG solutions. The rate of incorporation of uniformly labelled glucose into fatty acids was used as a measure of lipogenesis.
substance,measurement,value
Insulin,Lipogenesis (lipogenic activity),5160 ± 310 (n-20) milliunits/g liver
